In patent publication US20250161476A1 (REGENERON PHARMACEUTICALS, INC., priority 2020, published 2025):
*1 amine or outer side, *2 acyl side, *3 side chain or, on linkers, in order; H or OH if unused. Where a SMILES comes first, the peptide text is derived from it. Side-chain parts run from the residue outwards. [ ]: non-standard residue; d: D form. The star is where a group is joined. PEG24 = NCCOCCOCCOCCOCCOCCOCCOCCOCCOCCOCCOCCOCCOCCOCCOCCOCCOCCOCCOCCOCCOCCOCCOCCOCCC(=O)O; Bip(2'-Et-4'-O(CH2)4NH2) = CCc1cc(OCCCCN[*:3])ccc1-c1ccc(C[C@H](N[*:1])C(=O)[*:2])cc1; Bip(2'-Et,4'-O(CH2)4N3) = CCc1cc(OCCCCN=[N+]=[N-])ccc1-c1ccc(C[C@H](N)C(=O)O)cc1; Bip(2'-Et,4'-O(CH2)4NH2) = CCc1cc(OCCCCN)ccc1-c1ccc(C[C@H](N)C(=O)O)cc1; X6 = O=C(NCCOCCOCCOCCOC(=O)*)OC[C@@H]1[C@@H]2CCc3[nH]nnc3CC[C@@H]21; Malonyl(2,2-Me2,histaminyl) = CC(C)(C(=O)NCCc1cnc[nH]1)C(=O)*; Nva(5-(3,5-Me2Ph)) = Cc1cc(C)cc(CCC[C@H](N)C(=O)O)c1; Ala(1H-tetrazol-5-yl) = N[C@@H](Cc1nnn[nH]1)C(=O)O; αMePhe(2-F) = C[C@](N)(Cc1ccccc1F)C(=O)O; DBCO = C1#Cc2ccccc2N(*)Cc2ccccc21; Suc = O=C(CCC(=O)[*:2])[*:1]; Aib = CC(C)(N)C(=O)O

What was measured:
HEK293/CRE-Luc cells = assay: cAMP responsive luciferase reporter assay, HEK293/CRE-Luc cells (no hGLP1R expression); format: cell-based, human
From the text: (§1) To test the activity of GLP1R agonist payloads, GLP1R agonist linker-payloads (LPs), and anti-GLP1R antibody tethered drug conjugates (ATDCs) of the disclosure, a cell-based cAMP responsive luciferase reporter assay was developed. To generate the assay cell line, the firefly luciferase gene was placed under the control of a cAMP response element (CRE) located upstream of a minimal promoter and transfected into HEK293 cells and referred to herein as HEK293/CRE-Luc cells.
(§2) Three-fold serial dilutions of free payloads or LPs were prepared in 100% DMSO, transferred to fresh assay media, and added to the cells at a final constant DMSO concentration of 0.2%. The last well in the plate served as a blank control containing only the assay media and 0.2% DMSO (untreated well) and was plotted as a continuation of the 3-fold serial dilution. Four to six hours later, luciferase activity was determined after the addition of One-Glo™ reagent (Promega, Cat #E6130) to each well. Relative light units (RLUs) were measured on an Envision luminometer (PerkinElmer) and EC50 values were determined using a four-parameter logistic equation over a 12-point dose response curve (GraphPad Prism). The signal to noise (S/N) was determined by taking the ratio of the highest RLU on the dose response curve to the RLU in the untreated wells.

human GLP1R = human GLP1R (Homo sapiens (Human), UniProt P43220); assay: cAMP responsive luciferase reporter assay, HEK293/CRE-Luc/hGLP1R cells; format: cell-based
Sequence of human GLP1R (P43220 24-463): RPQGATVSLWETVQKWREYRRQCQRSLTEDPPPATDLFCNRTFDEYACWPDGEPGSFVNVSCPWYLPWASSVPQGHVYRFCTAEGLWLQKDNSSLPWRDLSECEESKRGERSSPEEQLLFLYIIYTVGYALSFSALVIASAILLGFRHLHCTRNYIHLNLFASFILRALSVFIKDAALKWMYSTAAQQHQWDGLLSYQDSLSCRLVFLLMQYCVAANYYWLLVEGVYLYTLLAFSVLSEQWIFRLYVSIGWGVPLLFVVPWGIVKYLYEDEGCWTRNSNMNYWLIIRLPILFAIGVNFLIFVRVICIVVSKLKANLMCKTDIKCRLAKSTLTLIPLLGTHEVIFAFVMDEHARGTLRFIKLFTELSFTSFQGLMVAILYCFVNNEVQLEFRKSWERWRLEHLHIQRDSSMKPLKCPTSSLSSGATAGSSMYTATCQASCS
From the text: as §1, §2
GLP1R agonist linker payloads were conjugated to anti-hGLP1R antibodies via N-terminal heavy or light chain Q tags. Several resulting anti-GLP1R antibody tethered drug conjugates (ATDCs) were tested for activity in the HEK293/CRE-Luc/hGLP1R reporter assay as described above for the free GLP1R payload and linker-payload agonists.

[1] = Plasma stability of payloads and linker-payloads, human plasma; format: in vitro ADME; conditions: for half-life at 2 µM: human, pooled plasma, pH 7.4, payload properties table, species not given, read-out: Plasma stability t½ (converted)
Protocol: The plasma stability of payloads and linker payloads of the disclosure were measured. For the assay, pooled frozen plasma (human, mouse or monkey) was thawed in cold water or a 37° C. water bath prior to experiment. Plasma was centrifuged at 4000 rpm for 5 min if any clots were observed, they were subsequently removed. If required, the pH was adjusted to 7.4±0.1. For the preparation of compounds and positive controls, a 1 mM intermediate solution was prepared by diluting 10 μL of their stock solution with 90 μL DMSO; a 1 mM intermediate solution of the positive control (Propantheline) was prepared by diluting 10 μL of its stock solution with 90 μL ultrapure water. […] 98 μL of plasma was spiked with 2 μL of dosing solution (100 μM) to achieve the final concentration of 2 μM in duplicate. Samples were then incubated at 37° C. in a water bath. […] At each time point, 400 μL of stop solution (200 ng/mL tolbutamide plus 200 ng/mL labetalol in 50% ACN/MeOH) was added to precipitate protein and mixed thoroughly. Sample plates were then centrifuged at 4,000 rpm for 10 min. An aliquot of supernatant (50 μL) was transferred from each well and mixed with 100 μL ultra-pure water. The samples were then shaken at 800 rpm for approximately 10 min before submitting for LC-MS/MS analysis.

[2] = relative to P8 of the same experiment
[3] = human plasma, tested for 7 days (D)
[4] = human plasma, tested for 3 days (C)
[5] = human plasma, tested for 1 day (A)

CC[C@H](C)[C@H](NC(=O)[C@H](Cc1ccccc1)NC(=O)[C@H](CCC(=O)O)NC(=O)[C@H](CCCCN)NC(=O)[C@H](C)NC(=O)[C@H](C)NC(=O)[C@H](CCC(N)=O)NC(=O)CNC(=O)[C@H](CCC(=O)O)NC(=O)[C@H](CC(C)C)NC(=O)[C@H](Cc1ccc(O)cc1)NC(=O)[C@H](CO)NC(=O)[C@H](CO)NC(=O)[C@@H](NC(=O)[C@H](CC(=O)O)NC(=O)[C@H](CO)NC(=O)[C@@H](NC(=O)[C@H](Cc1ccccc1)NC(=O)[C@@H](NC(=O)CNC(=O)[C@H](CCC(=O)O)NC(=O)[C@H](C)NC(=O)[C@@H](N)Cc1c[nH]cn1)[C@@H](C)O)[C@@H](C)O)C(C)C)C(=O)N[C@@H](C)C(=O)N[C@@H](Cc1c[nH]c2ccccc12)C(=O)N[C@@H](CC(C)C)C(=O)N[C@H](C(=O)N[C@@H](CCCCN)C(=O)NCC(=O)N[C@@H](CCCNC(=N)N)C(N)=O)C(C)C [GLP1, Glucagon-like peptide 1, reference compound]
HEK293/CRE-LUC S/N (HEK293/CRE-Luc cells): 1.3
HEK293/CRE-Luc S/N (HEK293/CRE-Luc cells; ATDCs, Table 12): 1.4

CCc1cc(OCCCCNC(=O)CCOCCOCCOCCOCCOCCOCCOCCOCCOCCOCCOCCOCCOCCOCCOCCOCCOCCOCCOCCOCCOCCOCCOCCOCCNC(=O)CCC(=O)N2Cc3ccccc3C#Cc3ccccc32)ccc1-c1ccc(C[C@H](NC(=O)[C@H](CC(=O)O)NC(=O)[C@H](CO)NC(=O)[C@@H](NC(=O)[C@](C)(Cc2ccccc2F)NC(=O)[C@@H](NC(=O)CNC(=O)[C@H](Cc2nn[nH]n2)NC(=O)C(C)(C)C(=O)NCCc2cnc[nH]2)[C@@H](C)O)[C@@H](C)O)C(=O)N[C@@H](CCCc2cc(C)cc(C)c2)C(N)=O)cc1 [LP4, DIBAC-suc-PEG24-P9] ({Malonyl(2,2-Me2,histaminyl)}-[Ala(1H-tetrazol-5-yl)]GT[αMePhe(2-F)]TSD[Bip(2'-Et-4'-O(CH2)4NH2)]([PEG24-Suc-DBCO])[Nva(5-(3,5-Me2Ph))]-NH2)
EC50 (HEK293/CRE-Luc cells): > 200 nM
HEK293/CRE-LUC S/N (HEK293/CRE-Luc cells): 1.7
HEK293/CRE-LUC/hGLP1R S/N (human GLP1R; highest RLU / RLU of untreated wells): 63.8
HEK293/CRE-LUC/hGLP1R Relative Potency (% P8 EC50) (human GLP1R; [2]): 4.2%
HEK293/CRE-LUC/hGLP1R Relative Signal:Noise (% P8) (human GLP1R; [2]): 97.1%

CCc1cc(OCCCCn2cc(COCCOCCOCCOCCNC(=O)OC[C@@H]3[C@@H]4CCc5[nH]nnc5CC[C@@H]43)nn2)ccc1-c1ccc(C[C@H](NC(=O)[C@H](CC(=O)O)NC(=O)[C@H](CO)NC(=O)[C@@H](NC(=O)[C@](C)(Cc2ccccc2F)NC(=O)[C@@H](NC(=O)CNC(=O)[C@H](Cc2nn[nH]n2)NC(=O)C(C)(C)C(=O)NCCc2cnc[nH]2)[C@@H](C)O)[C@@H](C)O)C(=O)N[C@@H](CCCc2cc(C)cc(C)c2)C(N)=O)cc1 [LP24, triazole-BCN-PEG4-triazole-P8]
Human plasma stability assay T½ [1, 3]: >404.7 h

CCc1cc(OCCCCNC(=O)OCCOCCOCCOCCNC(=O)OC[C@@H]2[C@@H]3CCc4[nH]nnc4CC[C@@H]32)ccc1-c1ccc(C[C@H](NC(=O)[C@H](CC(=O)O)NC(=O)[C@H](CO)NC(=O)[C@@H](NC(=O)[C@](C)(Cc2ccccc2F)NC(=O)[C@@H](NC(=O)CNC(=O)[C@H](Cc2nn[nH]n2)NC(=O)C(C)(C)C(=O)NCCc2cnc[nH]2)[C@@H](C)O)[C@@H](C)O)C(=O)N[C@@H](CCCc2cc(C)cc(C)c2)C(N)=O)cc1 [LP25, triazole-BCN-PEG4-carbamate-P9] ({Malonyl(2,2-Me2,histaminyl)}-[Ala(1H-tetrazol-5-yl)]GT[αMePhe(2-F)]TSD[Bip(2'-Et-4'-O(CH2)4NH2)](X6)[Nva(5-(3,5-Me2Ph))]-NH2)
Human plasma stability assay T½ [1, 3]: 284.8 h

CCc1cc(OCCCCNC(=O)[C@H](CO)NC(=O)CNC(=O)CNC(=O)CNC(=O)CNC(=O)CCC(=O)N2Cc3ccccc3-c3nn[nH]c3-c3ccccc32)ccc1-c1ccc(C[C@H](NC(=O)[C@H](CC(=O)O)NC(=O)[C@H](CO)NC(=O)[C@@H](NC(=O)[C@](C)(Cc2ccccc2F)NC(=O)[C@@H](NC(=O)CNC(=O)[C@H](Cc2nn[nH]n2)NC(=O)C(C)(C)C(=O)NCCc2cnc[nH]2)[C@@H](C)O)[C@@H](C)O)C(=O)N[C@@H](CCCc2cc(C)cc(C)c2)C(N)=O)cc1 [LP26, triazole-DABAC- G4S-P9]
Human plasma stability assay T½ [1, 3]: >404.7 h

CCc1cc(OCCCCn2cc(COCCOCCOCCOCCOCCOCCOCCOCCNC(=O)CCC(=O)N3Cc4ccccc4-c4nn[nH]c4-c4ccccc43)nn2)ccc1-c1ccc(C[C@H](NC(=O)[C@H](CC(=O)O)NC(=O)[C@H](CO)NC(=O)[C@@H](NC(=O)[C@](C)(Cc2ccccc2F)NC(=O)[C@@H](NC(=O)CNC(=O)[C@H](Cc2nn[nH]n2)NC(=O)C(C)(C)C(=O)NCCc2cnc[nH]2)[C@@H](C)O)[C@@H](C)O)C(=O)N[C@@H](CCCc2cc(C)cc(C)c2)C(N)=O)cc1 [LP28, triazole-DIBAC-suc-PEG8-triazole-P8]
half-life ([1]; human plasma, tested for 3 days (C), read-out: Human plasma stability assay T½): > 7.23 days

CCc1cc(OCCCCn2cc(COCCOCCOCCOCCOCCOCCOCCOCCN)nn2)ccc1-c1ccc(C[C@H](NC(=O)[C@H](CC(=O)O)NC(=O)[C@H](CO)NC(=O)[C@@H](NC(=O)[C@](C)(Cc2ccccc2F)NC(=O)[C@@H](NC(=O)CNC(=O)[C@H](Cc2nn[nH]n2)NC(=O)C(C)(C)NC(=O)[C@@H](N)Cc2ccc(O)cc2)[C@@H](C)O)[C@@H](C)O)C(=O)N[C@@H](CCCc2cc(C)cc(C)c2)C(N)=O)cc1 [LP29, NH2-PEG8-triazole-P19]
Human plasma stability assay T½ [1, 4]: >173.4 h

CCc1cc(OCCCCn2cc(COCCOCCOCCOCCOCCOCCOCCOCCC(=O)N[C@@H](CC(C)C)C(=O)N3CCC[C@@H]3C(=O)N[C@@H](CCC(=O)O)C(=O)N[C@H](C(=O)NCC(=O)NCC(=O)O)[C@@H](C)O)nn2)ccc1-c1ccc(C[C@H](NC(=O)[C@H](CC(=O)O)NC(=O)[C@H](CO)NC(=O)[C@@H](NC(=O)[C@](C)(Cc2ccccc2F)NC(=O)[C@@H](NC(=O)CNC(=O)[C@H](Cc2nn[nH]n2)NC(=O)C(C)(C)C(=O)NCCc2cnc[nH]2)[C@@H](C)O)[C@@H](C)O)C(=O)N[C@@H](CCCc2cc(C)cc(C)c2)C(N)=O)cc1 [LP34, GGTEPL-PEG8- triazole-P8]
Human plasma stability assay T½ [1, 4]: >173.4 h

CCc1cc(OCCCCN)ccc1-c1ccc(C[C@H](NC(=O)[C@H](CC(=O)O)NC(=O)[C@H](CO)NC(=O)[C@@H](NC(=O)[C@](C)(Cc2ccccc2F)NC(=O)[C@@H](NC(=O)CNC(=O)[C@@H](N)Cc2nn[nH]n2)[C@@H](C)O)[C@@H](C)O)C(=O)N[C@@H](CCCc2cc(C)cc(C)c2)C(N)=O)cc1 [P2]
Human plasma stability assay T½ ([1]; human plasma, tested for 2 hrs (B)): 10.74 h
half-life at 2 µM [1]: 642 min

CCc1cc(OCCCCN)ccc1-c1ccc(C[C@H](NC(=O)[C@H](CC(=O)O)NC(=O)[C@H](CO)NC(=O)[C@@H](NC(=O)[C@](C)(Cc2ccccc2F)NC(=O)[C@@H](NC(=O)CNC(=O)[C@H](Cc2nn[nH]n2)NC(=O)C(C)(C)NC(=O)[C@@H](N)Cc2ccc(O)cc2)[C@@H](C)O)[C@@H](C)O)C(=O)N[C@@H](CCCc2cc(C)cc(C)c2)C(N)=O)cc1 [P19] (H-Y[Aib][Ala(1H-tetrazol-5-yl)]GT[αMePhe(2-F)]TSD[Bip(2'-Et,4'-O(CH2)4NH2)][Nva(5-(3,5-Me2Ph))]-NH2)
Human plasma stability assay T½ [1, 5]: >57.81 h
half-life at 2 µM [1]: > 3470 min

CCc1cc(OCCCCN=[N+]=[N-])ccc1-c1ccc(C[C@H](NC(=O)[C@H](CC(=O)O)NC(=O)[C@H](CO)NC(=O)[C@@H](NC(=O)[C@](C)(Cc2ccccc2F)NC(=O)[C@@H](NC(=O)CNC(=O)[C@H](Cc2nn[nH]n2)NC(=O)C(C)(C)C(=O)NCCc2cnc[nH]2)[C@@H](C)O)[C@@H](C)O)C(=O)N[C@@H](CCCc2cc(C)cc(C)c2)C(=O)O)cc1 [P41] ({Malonyl(2,2-Me2,histaminyl)}-[Ala(1H-tetrazol-5-yl)]GT[αMePhe(2-F)]TSD[Bip(2'-Et,4'-O(CH2)4N3)][Nva(5-(3,5-Me2Ph))]-OH)
Human plasma stability assay T½ [1, 5]: >57.81 h
